For assay [1], the system named is C. albicans. Briefly: Checkerboard synergy assay with polysaccharide synthesis inhibitors. Type of assay: cell-based, Candida albicans. The following applies: for MIC: Candida albicans, read-out: MIC of polysaccharide synthesis inhibitor alone. The method, then: (§1) Saccharomyces cerevisiae deletion strains were retrieved from the haploid non-essential deletion collection (ThermoScientific) and were isogenic with the wild type BY4741 (MATa his3Δ1 leu2Δ0 met15Δ0 ura3Δ0). Candida albicans experiments were performed with strain ATCC90028.
(§2) Antifungal assays were performed as described in ([Bleackley et al., 2014]). S. cerevisiae cells were prepared by diluting to an OD600 = 0.01 and C. albicans cells were diluted to OD600 = 0.0002 in ½ strength potato dextrose broth (1/2 PDB) (Becton Dickinson). Assays investigating the combined effect of chemical cell wall synthesis inhibitors with defensins were performed as described in ([Bleackley et al., 2017]). Synergy was assessed using the fractional inhibitory concentration (FIC) equation. FIC=MICAcombination/MICAalone+MICBcombination/MICBalone
(§3) Synergy is defined as an FIC value of less than 0.5. Assays investigating the activity of defensins in salt were set up using the same checkerboard method as the synergy assays but with NaCl in place of one of the antifungal molecules.

For assay [2], the system named is S. cerevisiae BY4741. Description: Antifungal growth assay, wild type. Type of assay: cell-based, Saccharomyces cerevisiae. The conditions noted are these: 1/2 PDB, twofold dilution series, lowest concentration with no visible growth, three independent experiments. As to the method: as §1, §2
A short description of assay [3]: Polysaccharide binding (solution depletion) to yeast β-glucan. The conditions noted are these: one-site binding model. The method, then: (§4) Defensin binding to polysaccharides was examined using the protocol described in ([Osmond et al., 2001]) with some modifications. Briefly, the insoluble polysaccharides, yeast β-glucan (Megazyme), chitin from shrimp shells (Sigma), and microcrystalline cellulose (Sigma) were washed twice with water and once with phosphate buffered saline (PBS) and resuspended in PBS at 100 mg/mL. The appropriate volume of polysaccharide suspension was transferred to a 1.5 mL microfuge tube. PBS was added to increase the volume to 47.5 µL followed by defensin (2.5 µL of 0.8 mg/mL in H2O). This mixture was incubated on a rotating wheel at room temperature for 30 min before insoluble polysaccharide was pelleted at 17 000 g. Supernatant (25 µL) was transferred to a clean 1.5 mL microfuge tube, mixed with 5 µL of a 1:9 mix of Bond Breaker reducing agent (ThermoFisher):NuPage LDS Loading Buffer (Invitrogen) and heated to 95 °C for 20 min. Samples (20 µL) were loaded onto a 10% NOVEX Bolt BisTris gel (Life Technologies). Proteins were visualized by staining with RAPIDstain (Calbiochem) and imaged on a ChemiDoc (Bio-Rad). Densitometry was performed on resulting bands using the quantitation tool in ImageLab (V4.0 Bio-Rad) and the abundance of defensin remaining in the supernatant was calculated relative to the no polysaccharide control. Relative binding to the pellet was inferred as the amount of defensin that had been depleted from the supernatant (1-relative binding to pellet). All experiments were performed in triplicate. Kd values were calculated by plotting the relative binding vs the polysaccharide concentration in Prism (V7.0 GraphPad) and using the non-linear regression tool with the one-site binding hyperbola equation.

The subject of assay [4] is S. cerevisiae chs3Δ. Description: Antifungal growth assay, chitin synthase deletion strain. The conditions noted are these: 1/2 PDB, twofold dilution series, lowest concentration with no visible growth, three independent experiments. Type of assay: cell-based, Saccharomyces cerevisiae. As to the method: as §1, §2
Assay [5] has as its system S. cerevisiae. Briefly: Checkerboard synergy assay with polysaccharide synthase inhibitors. Type of assay: cell-based, Saccharomyces cerevisiae. The conditions noted are these: average of three independent experiments ± standard deviation, synergy FIC <0.5. As to the method:
as §2, §3

Assay [6] is described as follows: Polysaccharide binding (solution depletion) to chitin. Details: species or system shrimp. The following applies: one-site binding model. As to the method:
as §4

Assay [7] has as its system S. cerevisiae fks1Δ. Description: Antifungal growth assay, 1,3-β-glucan synthase deletion strain. Type of assay: cell-based, Saccharomyces cerevisiae. The following applies: 1/2 PDB, twofold dilution series, lowest concentration with no visible growth, three independent experiments. The method, then: as §1, §2
For assay [8], the system named is S. cerevisiae. Briefly: Growth inhibition in varying NaCl (checkerboard). Type of assay: cell-based, Saccharomyces cerevisiae. The conditions noted are these: 1/2 PDB; for Effect of increasing NaCl concentration on growth inhibitory activity: NaCl checkerboard up to about 100 mM, representative of three independent replicates. The method, then: as §2, §3
Assay [9] concerns S. cerevisiae BY4741. Briefly: Survival assay in the presence of exogenous 1,3-β-glucan (laminarin). The conditions noted are these: plated on YPD agar; for Laminarin concentration protecting against the antifungal activity of NaD1: 20 µM NaD1, 1 h. Type of assay: cell-based, Saccharomyces cerevisiae. As to the method:
To assess the effect of exogenous 1,3-β-glucan on the activity of NaD1, a survival assay was employed essentially as described in ([Bleackley et al., 2017]). A two-fold dilution series of laminarin (Sigma) from 50 mg/mL was prepared in MilliQ H2O and 10 µL of each concentration plus a no laminarin control were transferred to the wells of a U-bottom 96 well microtitre plate (Greiner Bio-one). NaD1 (10 µL of 200 µM solution) was added to each laminarin preparation. Controls with no NaD1 or laminarin were also prepared. An overnight culture of S. cerevisiae BY4741 cells was diluted to OD600 = 0.1 in ½ PDB. The diluted yeast cell suspension was then added to each of the wells of the microtitre plate and incubated at 30 °C with shaking at 750 rpm in a Thermomixer (Eppendorff) for 1 h. A fivefold dilution series of each treatment was then spotted onto YPD agar (1% yeast extract, 2% peptone, 2% dextrose, 2% agar) and incubated at 30 °C prior to imaging.

The test system of assay [10] is yeast spheroplasts. Description: Cell death of spheroplasts, SYTOX green flow cytometry. Type of assay: cell-based, Saccharomyces cerevisiae. As to the method: (§5) Spheroplasts were prepared as outlined in ([Guthrie and Fink, 2002]) with modifications. Cells were prepared with and without the addition of zymolyase (Sigma) and washed twice with ½ PDB with 1 M sorbitol prior to any defensin treatment. Successful hydrolysis of the cell wall was assessed by pelleting an aliquot of spheroplasts, resuspending in MilliQ H2O and assessing cell lysis. For survival assays, intact cells or spheroplasts were diluted in ½ PDB with 1 M sorbitol to an OD600 = 1. NaD1 (10 µL) at 0, 25, 50 or 100 µM was added to 90 µL of prepared cells or spheroplasts and incubated at 30 °C for 30 min. Serial dilutions of each treatment were plated onto YPD and incubated for 24 h at 30 °C prior to imaging. Assessment of the effect of NaCl on the activity of NaD1 on spheroplasts was conducted as described above except for the addition of 100 mM NaCl to the ½ PDB 1 M sorbitol in the appropriate treatment. The cell death indicator, SYTOX green (ThermoFisher), was added to all treatments to a final concentration of 1 µM and FACS analysis was performed using a FACS Canto II (BD biosciences) using the FITC settings. Analysis was performed using Weasel V3.0 (Walter and Eliza Hall Institute of Medical Research).
(In general: In flow cytometry, cells or beads pass a laser one at a time.)

Assay [11] relates to yeast cells with intact cell walls. Description: Cell death of intact yeast cells, SYTOX green flow cytometry. Type of assay: cell-based, Saccharomyces cerevisiae. As to the method:
as §5

Assay [12] in a line: Polysaccharide binding (solution depletion) to cellulose. The conditions noted are these: SDS-PAGE analysis of supernatant, 3 independent experiments. As to the method: as §4, with “Samples (20 µL) were loaded onto a 10% NOVEX Bolt BisTris gel (Life Technologies). Proteins were visualized by staining with RAPIDstain (Calbiochem) and imaged on a ChemiDoc (Bio-Rad).” left out, “Relative binding to the pellet was inferred as the amount of defensin that had been depleted from the supernatant (1-relative binding to pellet). All experiments were performed in triplicate.” left out

[13] abbreviates: insoluble polysaccharide in PBS, 30 min room temperature, SDS-PAGE densitometry of supernatant, Kd based on concentration of monosaccharide units, ± SEM, three independent replicates.
Where [14] appears, read: C. albicans checkerboard, synergy defined as FIC < 0.5.
[15] abbreviates: solution depletion, SDS-PAGE densitometry, polysaccharide mass concentration, 3 independent experiments.

As a reminder, the MIC is the lowest concentration found to suppress growth. As a reminder, the Kd is the equilibrium constant for the complex coming apart.

With `CC[C@H](C)C[C@H](C)CCCCCCCCC(=O)N[C@H]1C[C@@H](O)[C@@H](NCCN)NC(=O)[C@@H]2[C@@H](O)CCN2C(=O)[C@H]([C@H](O)CCN)NC(=O)[C@H]([C@H](O)[C@@H](O)c2ccc(O)cc2)NC(=O)[C@@H]2C[C@@H](O)CN2C(=O)[C@H]([C@@H](C)O)NC1=O` [caspofungin, reference compound], the MIC in assay [1] came to 0.25 µg/mL.

For `C[C@@H]([C@H](N)C(=O)N[C@H](C(=O)O)[C@H]1O[C@@H](n2ccc(=O)[nH]c2=O)[C@H](O)[C@@H]1O)[C@H](O)c1ccc(O)cn1` [nikkomycin Z, reference compound], in [1], the MIC was found to be 2.5 µg/mL.

Turning to “DmAMP1: defensin from Dahlia merckii expressed in Pichia pastoris (ELCEKASKTWSGNCGNTGHCDNQCKSWEGAAHGACHVRNGKHMCFCYFNC; UniProt P0C8Y4 1-50, looked up)”, the MIC worked out at 0.31 µM in assay [2], 0.31 µM in assay [4] and 0.16 µM in assay [7]. In addition, the “Kd, β-glucan” value in assay [3] (setting [13]) is listed as “No binding”. For the same compound, the “FIC in combination with caspofungin” value in [5] was found to be 0.6 ± 0.06. Also, in assay [5], the “FIC in combination with nikkomycin” value came to 0.64 ± 0.16. In assay [6] (setting [13]), the “Kd, chitin” value is given as “Neither TsD10 nor DmAMP1 bound”. For the same compound, the “Effect of increasing NaCl concentration on growth inhibitory activity” value in [8] was “no loss of growth inhibitory activity”. Moreover, the “Concentration completely inhibiting growth” value in assay [8] (absence of added NaCl, absorbance at 595 nm) is 0.313 µM.

For “NaD1: plant defensin from the ornamental tobacco Nicotiana alata, isolated from flowers (RECKTESNTFPGICITKPPCRKACISEKFTDGHCSKILRRCLCTKPC; UniProt Q8GTM0 26-72, looked up)”, the MIC was 2.5 µM in assay [2], 2.5 µM in assay [4] and 1.25 µM in [7]. In [9] (20 µM NaD1, absence of laminarin, 1 h), the “Survival of yeast cells” value was “eliminated all viable yeast cells”. In [10] (1 M sorbitol with 100 mM NaCl, SYTOX green), the “NaD1 concentration giving significant cell death” value was at least 0.313 µM. Moreover, the “Cell death (SYTOX green)” value was “over 60%” in [10] (NaD1 concentrations above 0.625 µM, 1/2 PDB with 1 M sorbitol, 30 °C 30 min) and 60% in assay [11] (NaD1 5 µM, 1/2 PDB with 1 M sorbitol, 30 °C 30 min). In addition, the “FIC in combination with caspofungin” value in [1] (setting [14]) is recorded as 0.3; in assay [5] it was 0.3 ± 0.06. For the same compound, in assay [1] (setting [14]), the “FIC in combination with nikkomycin Z” value is listed as 0.92. The “Effect on cell death” value in assay [11] (1 M sorbitol with 100 mM NaCl, up to 10 µM NaD1, SYTOX green) is on record as “unaffected”. Also, the Binding to cellulose entry in [12] is “did not bind”. In addition, the Kd turned out to be 25.9 ± 5 mM in assay [3] (setting [13]) and 33 ± 11.8 mM in [6] (setting [13]). Besides, in assay [3] (setting [15]), the “Kd, β-glucan” value is 4200 ± 800 µg/mL. Moreover, the “Kd, chitin” value in assay [6] (setting [15]) was determined as 6700 ± 2400 µg/mL. For the same compound, in assay [8], the “Effect of increasing NaCl concentration on growth inhibitory activity” value was “progressively poorer inhibitor”.

With laminarin, the “Laminarin concentration protecting against the antifungal activity of NaD1” value in assay [9] is at least 1.25 mg/mL; in assay [9] (listed as Laminarin), “above 1.25 mg/mL”.

For the origin of these results see article PMC7389181, “The interaction with fungal cell wall polysaccharides determines the salt tolerance of antifungal plant defensins” (The Cell Surface, 2019).
